The assay can be described thus: Inhibition of Influenza A virus (A/California/04/2009 (H1N1-H274Y)) Neuraminidase using MUNANA as substrate preincubated for 5 to 15 mins followed by substrate addition and measured after 30 mins by fluorescence spectrophotometric method.

Structures are written as SMILES.

Take `CCC(CC)O[C@@H]1C=C(C(=O)O)C[C@H](NC(N)=O)[C@H]1NC(C)=O`: the IC50 was 0.667 µM.

`CCC(CC)O[C@@H]1C=C(C(=O)O)C[C@H](N)[C@H]1NC(C)=O` [OSELTAMIVIR CARBOXYLATE]: 4.07 µM corresponded to half-maximal inhibition (IC50).

The values above are taken from ChEMBL document CHEMBL4680272 (Eur J Med Chem, 2020).
